Measurements as given in article PMC6713100, “Anticancer sulfonamide hybrids that inhibit bladder cancer cells growth and migration as tubulin polymerisation inhibitors” (Journal of Enzyme Inhibition and Medicinal Chemistry, 2019).
Values belong to the compound of their own block, whether it stands above or below them.

Columns and labels:
[1] = tested on: HT-29 cell line; parameters: method as in PMID 26774930; conditions: read-out: IC50 HT-29 cell viability; cited from earlier work
[2] = tested on: MCF-7 cells; parameters: method as in PMID 28802125; conditions: read-out: IC50 MCF-7 antiproliferative activity; cited from earlier work
[3] = tested on: T47D cells; parameters: method as in PMID 28212337; conditions: read-out: IC50 T47D anticancer activity in vitro; cited from earlier work
[4] = tested on: MCF-7; test: CCK8 antiproliferative assay, breast cancer cells; format: cell-based; conditions: Homo sapiens, MCF7, treatment for 48 h, means of three independent experiments
[5] = tested on: SNU-423; test: CCK8 antiproliferative assay, liver cancer cells; format: cell-based; conditions: Homo sapiens, treatment for 48 h, means of three independent experiments
Experimental: (§1) Breast cancer cells (MDA-MB-453), liver cancer cells (SNU-423), and bladder cancer cells (UM-UC-3, RT-112, RT4, T24) were purchased from the Shanghai culture company, and cultured at 37 °C in an atmosphere containing 5% CO2. 4,000 cells per well were seeded into a 96-well plate for 24 h and compounds were added to cluture 48 h. Next, 6 mg/ml CCK8 (20 µl) per well was added to explore the cell survival.
(§2) CCK8 method was used to investigate the anticancer activity in vitro of sulfonamide-dithiocarbamate hybrids 13a–13d against cancer cells for 48 h. MDA-MB-453 (breast cancer cells), SNU-423 (liver cancer cells) and RT-112 (bladder cancer cells) were selected to explore the antiproliferative activity. In this work, 5-fluorouracil (5-Fu) was used as the control drug.

[6] = tested on: RT-112; test: CCK8 antiproliferative assay, bladder cancer cells RT-112; format: cell-based; conditions: Homo sapiens, treatment for 48 h
Experimental: as §1, §2
(§3) In order to explore the antiproliferation ability, four bladder cancer cell lines (UM-UC-3, RT-112, RT4 and T24) were selected and treated with the hybrid 13d in the 24-well plate for 48 h and 72 h. […] Compared with the cell proliferation of 48 h, the cell proliferation of 72 h was decreased.

[7] = tested on: MDA-MB-453, SNU-423 and RT-112; test: CCK8 antiproliferative assay, all three cancer cells; format: cell-based; conditions: CCK8, 48 h; read-out: IC50 against all three cancer cells
Experimental: as §1, §2

[8] = tested on: tubulin; test: Tubulin polymerisation assay in vitro; format: biochemical; conditions: for IC50: 6 mg/ml tubulin, PEM buffer, 37 °C, read-out: IC50 tubulin polymerisation inhibitory activity in vitro
Experimental: (§4) An amount of 6 mg/ml tubulin was resuspended in the PEM buffer (80 mM PIPES (pH 6.9), 1 mM EGTA, 0.5 mM MgCl2, […], 10.2% (v/v) glycerol) and then was preincubated with a sulfonamide-dithiocarbamate hybrid 13d on the ice. The reaction was monitored by a spectrophotometer (Beijng Tianhe Company) at 37 °C to obtain the results of tubulin polymerisation in vitro. RT-112 cells were treated with sulfonamide-dithiocarbamate hybrid 13d for 48 h. Then, slices were fixed by 4% paraformaldehyde for 20 min and washed by PBS for five times. 0.6% Triton-X-100 was added and 0.1% BSA was used to block. β-tubulin antibody was added to incubate overnight at 4 °C. DAPI was used to stain and then images were captured.
Tubulin polymerisation assay investigated that compound 13d inhibited tubulin polymerisation in a concentration dependent manner.

[9] = tested on: UM-UC-3; test: Cell proliferation of bladder cancer cells UM-UC-3; format: cell-based; conditions: Homo sapiens, UMUC3; treatment for 48 h
Experimental: as §1, §3

[10] = tested on: RT4; test: Cell proliferation of bladder cancer cells RT4; format: cell-based; conditions: Homo sapiens, RT-4; treatment for 48 h
Experimental: as §1, §3

[11] = tested on: T24; test: Cell proliferation of bladder cancer cells T24; format: cell-based; conditions: Homo sapiens, T-24; treatment for 48 h
Experimental: as §1, §3

[12] = tested on: RT-112 cells; test: Transwell migration assay; format: cell-based; conditions: 48 h
Experimental: Transwell chamber was used to do migration assay according to the reported references[17]^,[18]. Ten thousand RT-112 cells containing compound 13d were seeded in the top chambers for 24 h incubation. The bottom chambers were fixed and stained with crystal violet for 2 h. Finally, the chambers were washed with water, and the top membrane was left to dry.
Based on the antiproliferative activity results, compound 13d was selected to investigate the anticancer mechanisms against the RT-112 cell line. Corning transwell plate was used to do migration assay against RT-112 cells for 48 h. With the treatment of sulfonamide-dithiocarbamate hybrid 13d at 0.5, 1 and 2 µM, the migration rate of RT-112 cells was 76%, 40% and 29%, respectively.

[13] = tested on: E-cadherin, N-cadherin, Vimentin, Snail and Slung in RT-112 cells; test: Western blot of migration-related proteins; format: cell-based; conditions: 48 h, 0.5, 1 and 2 µM
Experimental: RT-112 cells were treated with compound 13d and then lysed in a RIPA lysis buffer. The protein samples of RT-112 cells were electrophoresed on SDS-PAGE. Nextly, targeted proteins were transferred to PVDF membrane and incubated with antibodies (E-cadherin, N-cadherin, Vimentin, Snail and Slung). The markers were visualised by chemiluminescence detection reagents.
To further characterise the migration effect of sulfonamide-dithiocarbamate hybrid 13d, the expression levels of migration-related proteins (E-cadherin, N-cadherin, Vimentin, Snail and Slung) were investigated against RT-112 cells. Compound 13d was treated for 48 h at concentrations of 0.5, 1 and 2 µM, respectively. […] In addition, hybrid 13d increased the expression of E-cadherin in a concentration manner.

[14] = tested on: RT-112 cells; test: Immunostaining of microtubules (β-tubulin antibody); format: cell-based
Experimental: as §4
Tubulin polymerisation inhibitory effects of the sulfonamide-dithiocarbamate hybrid 13d were further explored by the immunofluorescent staining in RT-112 cells. […] However, after the exposure to 0.25 µM of compound 13d, the microtubule organisation in the cytosol were disrupted.

[15] = tested on: RT-112 cells; test: RT-112 xenograft nude mouse model; format: in vivo, nude mice; conditions: 80 mg/kg intragastric, every day for 21 days
Experimental: In vivo experiments were processed according to guidelines established by the ethics committee of the 4th affiliated hospital of CMU. Mice were implanted with RT-112 cells (1.5 × 10^7 cells per mouse) on the right flank of nude mice. The mice were divided into the saline group and sulfonamide-dithiocarbamate hybrid 13d (80 mg/kg) group (n = 5 mice for each group). Intragastric administration of hybrid 13d was performed every day for a period of 21 days.
In order to investigate the tumor growth effects of compound 13d, the xenograft nude mouse of RT-112 cells were established.

SMILES: NS(=O)(=O)c1ccc(Nc2nc(-c3ccc(Cl)cc3)nc3ccccc23)cc1 [Compound 2]
- IC50 [1]: 5.45 µM

SMILES: NS(=O)(=O)c1ccc(/N=C2\NC(=O)/C(=C3/C(=O)Nc4ccc(Cl)cc43)S2)cc1 [Compound 3]
- IC50 [2]: 3.96 µM

SMILES: C#CCSc1ccnc2c(S(=O)(=O)N(C)CC#C)cccc12 [Compound 4]
- IC50 [3]: 0.27 µM

SMILES: O=c1[nH]cc(F)c(=O)[nH]1 [Compound 5-Fu, 5-fluorouracil, reference compound]
- IC50 [4]: 7.4 ± 0.5 µM
- IC50 [5]: 10.8 ± 0.7 µM
- IC50 [6]: 13.6 ± 0.2 µM

SMILES: COc1cc(N(CCCBr)S(=O)(=O)c2cccc3cccnc23)cc(OC)c1OC [Compound 12, N-(3-bromopropyl)-N-(3,4,5-trimethoxyphenyl)quinoline-8-sulfonamide]
- IC50 [4]: > 40 µM
- IC50 [5]: > 40 µM
- IC50 [6]: > 40 µM
- IC50 [7]: > 40 µM
- melting point: 129 to 131 °C

SMILES: COc1cc(N(CCCSC(=S)N2CCN(C)CC2)S(=O)(=O)c2cccc3cccnc23)cc(OC)c1OC [Compound 13a, 3-(N-(3,4,5-trimethoxyphenyl)quinoline-8-sulfonamido)propyl-4-methylpiperazine-1-carbodithioate]
- IC50 [4]: 6.4 ± 1.2 µM
- IC50 [5]: 8.7 ± 0.9 µM
- IC50 [6]: 7.8 ± 0.4 µM
- melting point: 96 to 98 °C

SMILES: COc1cc(N(CCCSC(=S)N2CCN(C(C)=O)CC2)S(=O)(=O)c2cccc3cccnc23)cc(OC)c1OC [Compound 13d, 3-(N-(3,4,5-trimethoxyphenyl)quinoline-8-sulfonamido)propyl-4-acetylpiperazine-1-carbodithioate]
- IC50 [4]: 2.8 ± 0.2 µM
- IC50 [5]: 3 ± 0.1 µM
- IC50 [6]: 0.7 ± 0.1 µM
- IC50 [9]: 0.9 µM
- IC50 [10]: 1.9 µM
- IC50 [11]: 2.6 µM
- migration rate of RT-112 cells ([12]; 13d at 0.5 µM): 76%
- migration rate of RT-112 cells ([12]; 13d at 1 µM): 40%
- migration rate of RT-112 cells ([12]; 13d at 2 µM): 29%
- expression of E-cadherin [13]: increased
- expression of N-cadherin [13]: decreased
- expression of Slung [13]: decreased
- expression of Snail [13]: decreased
- expression of Vimentin [13]: decreased
- IC50 [8]: 2.9 µM
- tubulin polymerisation inhibition ([8]; at 2 µM): weak inhibition
- tubulin polymerisation inhibition ([8]; at 6 µM): significantly inhibited
- microtubule organisation in the cytosol ([14]; 0.25 µM): disrupted
- changes of the mitotic spindles ([14]; 0.5 µM): more clearly observed
- average tumor weight [15]: 0.51 ± 0.21 g
- body weights versus control group [15]: no significant difference
- inhibitory rate (tumor weight) [15]: 66.67%
- tumor volume versus control group [15]: obviously less than that of the control group
- melting point: 128 to 129 °C

Now from value to compound, other results behind:

- IC50 [4]: > 40 µM
- IC50 [5]: > 40 µM
- IC50 [6]: > 40 µM
- IC50 [7]: > 40 µM
- melting point: 181 to 183 °C
SMILES: COc1cc(NS(=O)(=O)c2cccc3cccnc23)cc(OC)c1OC [Compound 11, N-(3,4,5-trimethoxyphenyl)quinoline-8-sulfonamide]

- IC50 [4]: 8.5 ± 0.7 µM
- IC50 [5]: 5.4 ± 0.3 µM
- IC50 [6]: 6.8 ± 0.7 µM
- melting point: 131 to 133 °C
SMILES: CCN1CCN(C(=S)SCCCN(c2cc(OC)c(OC)c(OC)c2)S(=O)(=O)c2cccc3cccnc23)CC1 [Compound 13b, 3-(N-(3,4,5-trimethoxyphenyl)quinoline-8-sulfonamido)propyl-4-ethylpiperazine-1-carbodithioate]

- IC50 [4]: 4.2 ± 0.1 µM
- IC50 [5]: 3.6 ± 0.7 µM
- IC50 [6]: 4.1 ± 0.6 µM
- IC50 [8]: 3.4 µM
- melting point: 106 to 108 °C
SMILES: COc1cc(N(CCCSC(=S)N2CCN(CCO)CC2)S(=O)(=O)c2cccc3cccnc23)cc(OC)c1OC [Compound 13c, 3-(N-(3,4,5-trimethoxyphenyl)quinoline-8-sulfonamido)propyl-4–(2-hydroxyethyl)piperazine-1-carbodithioate]
- tubulin polymerisation inhibition ([8]; at 2 µM): weak inhibition
- tubulin polymerisation inhibition ([8]; at 6 µM): significantly inhibited
